Laboratory results reported in the supplement of paper PMC10307832.

How the values were obtained:
Test in all cases: relative viability (nuclei count vs DMSO), 5 days (fraction); higher = more cells survive
Wnt-C59 + Bortezomib = compound: CC1=NC=CC(=C1)C2=CC=C(C=C2)CC(=O)NC3=CC=C(C=C3)C4=CN=CC=C4 [Wnt-C59] + CC(C)C[C@H](NC(=O)[C@H](Cc1ccccc1)NC(=O)c1cnccn1)B(O)O [Bortezomib] (partner 0.002 µM)
Outline: (§1)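 Relative viability equals treated-well nuclei counts divided by vehicle-well nuclei counts. Counts came from 4× images of lung cancer cell lines grown in 1536-well plates for 5 days after pin-tool dosing on the day after seeding. Dosing used one drug alone or a fixed anchor-drug dose plus five library-drug doses (not always all listed) in √10 steps, and values are medians of duplicate plates.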

Wnt-C59 + Foretinib = compound: CC1=NC=CC(=C1)C2=CC=C(C=C2)CC(=O)NC3=CC=C(C=C3)C4=CN=CC=C4 [Wnt-C59] + COc1cc2c(Oc3ccc(NC(=O)C4(C(=O)Nc5ccc(F)cc5)CC4)cc3F)ccnc2cc1OCCCN1CCOCC1 [Foretinib] (partner 0.25 µM)
Outline: as §1

Wnt-C59 + Pemetrexed = compound: CC1=NC=CC(=C1)C2=CC=C(C=C2)CC(=O)NC3=CC=C(C=C3)C4=CN=CC=C4 [Wnt-C59] + Nc1nc2[nH]cc(CCc3ccc(C(=O)N[C@@H](CCC(=O)O)C(=O)O)cc3)c2c(=O)[nH]1 [Pemetrexed] (partner 0.2 µM)
Outline: as §1

Lapatinib + Bortezomib = compound: CS(=O)(=O)CCNCc1ccc(-c2ccc3ncnc(Nc4ccc(OCc5cccc(F)c5)c(Cl)c4)c3c2)o1 [Lapatinib] + CC(C)C[C@H](NC(=O)[C@H](Cc1ccccc1)NC(=O)c1cnccn1)B(O)O [Bortezomib] (partner 0.002 µM)
Outline: as §1

Row | Cell Line | relative viability (Wnt-C59 + Bortezomib; first compound 0.001 µM) | relative viability (Wnt-C59 + Bortezomib; first compound 0.01 µM) | relative viability (Wnt-C59 + Bortezomib; first compound 0.03162 µM) | relative viability (Wnt-C59 + Bortezomib; first compound 0.1 µM) | relative viability (Wnt-C59 + Foretinib; first compound 0.001 µM) | relative viability (Wnt-C59 + Foretinib; first compound 0.01 µM) | relative viability (Wnt-C59 + Foretinib; first compound 0.03162 µM) | relative viability (Wnt-C59 + Foretinib; first compound 0.1 µM) | relative viability (Wnt-C59 + Pemetrexed; first compound 0.001 µM) | relative viability (Wnt-C59 + Pemetrexed; first compound 0.01 µM) | relative viability (Wnt-C59 + Pemetrexed; first compound 0.03162 µM) | relative viability (Wnt-C59 + Pemetrexed; first compound 0.1 µM) | relative viability (Lapatinib + Bortezomib; first compound 0.06325 µM) | relative viability (Lapatinib + Bortezomib; first compound 0.2 µM) | relative viability (Lapatinib + Bortezomib; first compound 0.6325 µM) | relative viability (Lapatinib + Bortezomib; first compound 2 µM) | relative viability (Lapatinib + Bortezomib; first compound 0.02 µM)
1 | NCI-H650 | 0.85 | 1.08 | 0.72 | 0.888 | 0.956 | 1.07 | 1.07 | 0.947 | 1.09 | 0.969 | 0.934 | 0.951 | 0.662 | 0.653 | 0.86 | 0.841 | 
2 | LOU-NH91 | 0.492 | 0.583 | 0.465 | 0.53 | 0.941 | 0.764 | 0.988 | 0.92 | 0.386 | 0.384 | 0.345 | 0.38 | 0.469 | 0.522 | 0.499 | 0.544 | 
3 | NCI-H2023 | 0.979 | 1.1 | 1.05 | 0.821 | 1.1 | 0.788 | 1.01 | 0.667 | 0.238 | 0.258 | 0.221 | 0.24 | 0.712 | 0.969 | 1.1 | 0.913 | 0.135
4 | LC-2-ad | 1.1 | 1.03 | 1.11 | 1.01 | 0.936 | 0.947 | 1.02 | 0.947 | 0.282 | 0.297 | 0.271 | 0.283 | 0.936 | 0.994 | 1.14 | 0.96 | 
5 | NCI-H1355 | 1.18 | 1.05 | 1.23 | 1.1 | 0.949 | 0.922 | 1.01 | 0.876 | 1.04 | 1.03 | 1.03 | 0.96 | 0.954 | 1.13 | 1.2 | 0.573 | 
6 | NCI-H2347 | 0.808 | 1.12 | 0.922 | 1.1 | 0.625 | 1.13 | 0.985 | 1.08 | 0.46 | 0.489 | 0.451 | 0.434 | 1.17 | 0.87 | 0.796 | 1 | 
7 | NCI-H441 | 0.364 | 0.236 | 0.593 | 0.682 | 0.977 | 1.05 | 1.01 | 1.04 | 0.277 | 0.225 | 0.258 | 0.276 | 0.628 | 0.45 | 0.379 | 0.657 | 
8 | NCI-H661 | 0.616 | 0.758 | 0.903 | 0.805 | 1 | 0.981 | 1.06 | 0.976 | 0.884 | 0.878 | 0.91 | 0.884 | 0.756 | 0.674 | 0.618 | 0.482 | 0.703
9 | 201T | 1.14 | 1.08 | 1.13 | 1.13 | 1.19 | 1.15 | 1.04 | 1.15 | 0.357 | 0.326 | 0.311 | 0.36 | 1.12 | 1.08 | 1.08 | 1.14 | 1.06
